Results on six compounds are retold here after patent US20110312956A1, “ARYLINDENOPYRIMIDINES WITH REDUCED hERG CHANNEL BINDING” (priority 2010, published 2011).

Read-outs that look alike come from different tables or passages of the source.

The inhibition is the relative decrease from the control value, in per cent. The Ki is the equilibrium dissociation constant of an inhibitor or competing ligand from its target.

One series has as its target T1, hERG (Homo sapiens, UniProt Q12809).
T1 construct: expressed in transfected cells; host or cells: HEK293 cells, stably transfected; membranes used
In words: hERG channel binding assay ([3H]astemizole displacement, HEK293 membranes). Particulars: probe [3H]astemizole, at 10 μM, read-out: hERG binding (percent inhibition of [3H]astemizole binding). On the procedure:
(§1) A hERG binding assay is a primary screening method used to evaluate potential activity of a compound against the hERG potassium channel. The affinity of a compound for the hERG channel is measured in vitro by examining displacement of tritiated-[^3H]astemizole, a high affinity hERG channel ligand. In this assay, membranes from HEK293 cells stably transfected with the human hERG channel cDNA are incubated with a range of concentrations of each test compound, vehicle (10% DMSO), or a positive control and [^3H]astemizole.
After a 1-hr incubation, the membranes are harvested onto GF/B filters, the filters dried and the radioactivity is measured. For each test compound, percent inhibition of [^3H]astemizole binding is calculated relative to control binding and IC50 values determined by linear regression. Each assay includes a positive control (i.e., Cisapride) that is tested in parallel with test compounds. At present, there is no gold standard preclinical test available to predict QT prolongation in humans. Therefore to assess potential cardiotoxicity, cardiovascular effects are evaluated preclinically in several different tests including the hERG channel binding assay.
hERG Channel Binding Assay
In the hERG channel binding assay, the ability of test compounds to displace ^3H-astemizole (a high affinity hERG channel ligand) is measured.
as §1, with “[^3H]astemizole. After a 1-hr incubation, the membranes are harvested onto GF/B filters, the filters dried and the radioactivity is measured.” for “[^3H]astemizole.”
For each test compound, percent inhibition of [^3H]astemizole binding is calculated relative to control binding and IC50 values determined by linear regression. Each assay includes a positive control (i.e., Cisapride) that is tested in parallel with test compounds.

The target of series [1] is T2, human A2a adenosine receptor (Homo sapiens, UniProt P29274).
T2 construct: purchased PerkinElmer RB-HA2a; host or cells: HEK293 cell plasma membranes
T2 sequence (P29274 whole entry): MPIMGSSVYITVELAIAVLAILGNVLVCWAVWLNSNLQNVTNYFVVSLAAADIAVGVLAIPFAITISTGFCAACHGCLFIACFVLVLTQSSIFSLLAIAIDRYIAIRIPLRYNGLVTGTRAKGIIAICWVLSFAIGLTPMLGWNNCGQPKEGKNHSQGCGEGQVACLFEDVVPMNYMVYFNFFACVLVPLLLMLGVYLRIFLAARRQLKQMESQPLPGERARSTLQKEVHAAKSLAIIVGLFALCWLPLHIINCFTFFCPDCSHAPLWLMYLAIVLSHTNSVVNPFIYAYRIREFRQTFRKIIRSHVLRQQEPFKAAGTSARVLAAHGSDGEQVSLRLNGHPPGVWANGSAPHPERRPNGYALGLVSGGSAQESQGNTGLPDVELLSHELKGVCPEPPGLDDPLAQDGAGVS
In words: Ligand binding assay for adenosine A2a receptor ([3H]CGS21680, HEK293 plasma membrane).

Setting [2] is: radioligand [3H]CGS21680, read-out: Ki A2a binding.

T1 sequence (Q12809 whole entry): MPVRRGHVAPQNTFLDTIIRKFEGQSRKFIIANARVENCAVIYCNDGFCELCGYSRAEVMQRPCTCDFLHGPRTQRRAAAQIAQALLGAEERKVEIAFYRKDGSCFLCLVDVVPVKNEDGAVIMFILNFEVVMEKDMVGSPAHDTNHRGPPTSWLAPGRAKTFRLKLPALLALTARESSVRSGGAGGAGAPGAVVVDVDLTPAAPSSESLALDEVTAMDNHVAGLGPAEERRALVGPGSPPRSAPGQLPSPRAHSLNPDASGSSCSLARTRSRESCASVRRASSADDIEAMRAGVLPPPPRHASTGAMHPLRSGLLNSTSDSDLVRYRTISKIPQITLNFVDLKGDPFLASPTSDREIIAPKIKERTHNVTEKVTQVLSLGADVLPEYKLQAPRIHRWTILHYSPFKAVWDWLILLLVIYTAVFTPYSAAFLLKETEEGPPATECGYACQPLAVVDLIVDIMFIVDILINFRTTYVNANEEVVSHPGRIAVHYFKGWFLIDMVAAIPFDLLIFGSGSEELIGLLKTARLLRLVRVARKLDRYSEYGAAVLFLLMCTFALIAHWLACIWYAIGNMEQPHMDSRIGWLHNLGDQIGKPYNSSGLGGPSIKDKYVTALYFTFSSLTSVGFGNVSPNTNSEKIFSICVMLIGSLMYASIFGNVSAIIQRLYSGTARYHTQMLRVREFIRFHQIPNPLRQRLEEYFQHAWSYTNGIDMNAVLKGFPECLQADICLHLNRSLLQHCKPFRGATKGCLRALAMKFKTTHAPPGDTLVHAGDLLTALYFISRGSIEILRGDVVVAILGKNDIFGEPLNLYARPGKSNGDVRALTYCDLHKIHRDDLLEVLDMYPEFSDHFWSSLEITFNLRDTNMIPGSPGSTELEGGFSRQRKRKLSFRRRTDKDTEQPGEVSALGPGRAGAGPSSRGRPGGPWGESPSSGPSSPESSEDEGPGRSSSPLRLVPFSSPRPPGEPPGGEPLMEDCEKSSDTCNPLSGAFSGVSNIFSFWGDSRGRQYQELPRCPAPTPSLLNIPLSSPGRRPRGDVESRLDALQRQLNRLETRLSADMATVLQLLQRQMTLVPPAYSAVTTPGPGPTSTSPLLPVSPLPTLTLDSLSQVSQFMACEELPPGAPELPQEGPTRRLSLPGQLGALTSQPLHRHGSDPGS

As to `Nc1nc(-c2ccccc2)c2c(n1)-c1cc(CN3CCC(O)CC3)ccc1C2=O` [Compound 5], on hERG, the inhibition at 1 h, 10 µM worked out at 26.2%. The inhibition constant Ki in series [1] (setting [2]) worked out at 5.8 nM.

As for `Nc1nc(-c2ccccc2)c2c(n1)-c1cc(CN3CCC(O)C3)ccc1C2=O` (stereo not drawn) [Compound 4], the inhibition at 1 h, 10 µM at hERG was 27.8%. For the same compound, in series [1] (setting [2]), the inhibitory constant (Ki) was determined as 7.9 nM.

As to `Nc1nc(-c2ccccc2)c2c(n1)-c1cc(CN3CCC(=O)CC3)ccc1C2=O` [Compound 3], the inhibition at 1 h, 10 µM on hERG was 13.8%. Besides, the Ki in series [1] (setting [2]) was 9.4 nM.

As to `Nc1nc(-c2ccccc2)c2c(n1)-c1cc(CN3CCOCC3)ccc1C2=O` [Compound 6], the inhibition at 1 h, 10 µM on hERG was -12.5%. Moreover, the Ki in series [1] (setting [2]) amounted to 5.39 nM.

For the compound `Nc1nc(-c2ccccc2)c2c(n1)-c1cc(CN3CCCC3)ccc1C2=O` [Compound 1], the inhibition at 1 h, 10 µM at hERG stood at 1.4%. For the same compound, in series [1] (setting [2]), the Ki came out at 6.69 nM.

In the case of `Nc1nc(-c2ccccc2)c2c(n1)-c1cc(CNCc3ccccn3)ccc1C2=O` [Compound 2], the inhibition at 1 h, 10 µM at hERG amounted to 34.5%. The compound also displayed a Ki in series [1] of 10.2 nM.
